{
  "source": "ChEMBL document CHEMBL5726833",
  "about": "“Heterocyclic compounds useful as pim kinase inhibitors” (2018)",
  "key": {"[1]": {"target": "Serine/threonine-protein kinase pim-3 (Homo sapiens, UniProt Q86V86)", "assay": "(§1) Enzyme Assay: Pim-1 and Pim-3 kinase assays—20 μL reactions were run in white 384 well polystyrene plates dotted with 0.8 μL compound/DMSO in the assay buffer (50 mM Tris, pH 7.5, 0.01% Tween-20, 5 mM mgCl2, 0.01% BSA, 5 mM DTT), containing 0.05 μM Biotin-labeled BAD peptide substrate (AnaSpec 62269), 1 mM ATP, and 2.5 pM (Pim-1, Invitrogen PV3503) or 1.25 pM (Pim-3, Millipore 14-738) enzyme for 1 h at 25° C. Reactions were stopped by addition of 10 μL STOP Buffer (150 mM Tris, pH=7.5, 150 mM NaCl, 75 mM EDTA, 0.01% Tween-20, 0.3% BSA,) supplemented with Phospho-Bad (Ser112) Antibody (Cell Signaling 9291) diluted 666-fold, and Streptavidin donor beads (PerkinElmer 6760002) along with Protein-A acceptor beads (PerkinElmer 6760137) at […] each. Supplementation of the STOP buffer with beads and stopping the reactions were done under reduced light. Prior to the stopping reactions STOP buffer with beads was preincubated for 1 h in the dark at room temperature. After stopping the reactions, plates were incubated for 1 h in the dark at room temperature before reading on a PHERAstar FS plate reader (BMG Labtech) under reduced light."}, "[2]": {"target": "Serine/threonine-protein kinase pim-1 (Homo sapiens, UniProt P11309)", "sequence (P11309 whole entry)": "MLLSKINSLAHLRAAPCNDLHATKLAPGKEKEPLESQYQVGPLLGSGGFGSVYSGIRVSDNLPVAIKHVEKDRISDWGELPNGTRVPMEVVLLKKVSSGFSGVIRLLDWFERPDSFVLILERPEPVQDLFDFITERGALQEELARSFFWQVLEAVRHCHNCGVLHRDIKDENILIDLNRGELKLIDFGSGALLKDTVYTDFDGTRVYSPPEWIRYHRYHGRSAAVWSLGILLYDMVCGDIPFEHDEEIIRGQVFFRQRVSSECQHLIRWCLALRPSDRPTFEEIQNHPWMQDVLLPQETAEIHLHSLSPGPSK", "assay": "as §1"}, "[3]": {"target": "Serine/threonine-protein kinase pim-2 (Homo sapiens, UniProt Q9P1W9)", "sequence (Q9P1W9 whole entry)": "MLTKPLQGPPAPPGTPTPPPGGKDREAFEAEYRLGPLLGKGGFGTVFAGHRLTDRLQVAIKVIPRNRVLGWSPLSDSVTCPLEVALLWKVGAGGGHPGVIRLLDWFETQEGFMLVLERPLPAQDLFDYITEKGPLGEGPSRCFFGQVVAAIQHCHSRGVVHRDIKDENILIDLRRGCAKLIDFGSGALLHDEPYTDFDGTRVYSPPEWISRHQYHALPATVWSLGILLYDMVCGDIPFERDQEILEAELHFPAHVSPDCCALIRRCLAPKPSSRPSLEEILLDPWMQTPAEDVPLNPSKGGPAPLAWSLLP", "assay": "Kinase Assay: Pim-2 kinase assay—20 μL reactions were run in white 384 well polystyrene plates dotted with 0.8 μL compound/DMSO in the assay buffer (50 mM Tris, pH 7.5, 0.01% Tween-20, 5 mM mgCl2, 0.01% BSA, 5 mM DTT), containing 0.05 μM Fluorescein-labeled CREBtide peptide substrate (Invitrogen PV3508), 1 mM ATP, and 1 nM enzyme (Invitrogen PV3649) for 2 h at 25° C. Reactions were stopped by addition of 10 μL TR-FRET Dilution Buffer (Invitrogen PV3574) with 30 mM EDTA and 1.5 nM LanthaScreen Tb-CREB pSer133 antibody (Invitrogen PV3566). After 30 min. incubation at room temperature, plates were read on a PHERAstar FS plate reader (BMG Labtech)."}},
  "data": [
    {"smiles": "C[C@@H]1C[C@H](N)C[C@H](c2ccncc2NC(=O)c2ccc(F)c3cc(-c4c(F)cccc4F)cnc23)C1", "values": [
      {"measurement": "IC50", "setting": "[1]", "result": "< 10", "unit": "nM"},
      {"measurement": "IC50", "setting": "[2]", "result": "< 10", "unit": "nM"},
      {"measurement": "IC50", "setting": "[3]", "result": "< 100", "unit": "nM"}
    ]}
  ]
}
